Test results as given in US20230413822A1, “ORAL CANINE FEED AND METHODS FOR C[…] INFESTATIONS IN A CANINE” (In the Bowl Animal Health, Inc., priority 2021, published 2023).

What was measured:
[1] = Plasma concentration of mivorilaner in dogs at various daily oral doses (Example 2); type: in vivo; conditions: average plasma
Excerpt: Methods: A pool of 46 dogs are to be preliminarily infested with ˜50 unfed adult R. sanguineus ticks in order to produce dogs that can suitably sustain a reliable infestation rate, defined as approximately 25% of attached ticks being live at the end of a 48-hour period. The 40 dogs with the highest live attached tick counts are to be selected for inclusion in the study. The dogs are to be randomly assigned to one of a control group and 4 treatment groups.
(§1) The dogs are to be housed individually during the study period and are to be fed a commercial dry dog food ration with ad libitum access to water.
Each dog in a treatment group (test groups 2-5) is to receive by mouth a liquid formulation of isoxazoline.
Dogs in the control group are not to receive isoxazoline or any other tick control treatment. Each dog in the treatment group is to be offered its daily ration (dry food) and the individual doses of liquid formulation are to be administered after the individual dog has eaten at least 25% of its total daily ration. After receiving the dose of isoxazoline, the dogs are to be allowed to continue eating. Each dog in treatment groups 3-5 and the control group is to be experimentally infested with 50 adult ticks on test days −2, 5, 12, 19, 28, 35 and 42. Dogs in group 2 are to be infested with 50 adult ticks on test days 19, 28 and 35. Comb counts for live adult ticks are to be conducted on days 2, 7, 14, 21, 30, 37 and 44.
Sample results of the average plasma concentration of isoxazoline in a canine's blood at different dosage levels of mivorilaner are shown in TABLE 3 and FIG. 4.

[2] = Plasma concentration of mivorilaner in dogs given an oral liquid formulation daily (Example 1); type: in vivo; conditions: average of 6 canines, Day 3, 0.75 mg/kg/day oral, days 0-29
Excerpt: Methods: A pool of 14 dogs are to be preliminarily infested with ˜100 unfed adult C. felis in order to produce dogs that can suitably sustain a reliable infestation rate, defined as approximately 50% fleas being live at the end of a 48-hour period. The 12 dogs with the highest live flea counts are to be selected for inclusion in the study. The dogs are to be divided into a control group and a treatment group.
as §1
Each dog in the treatment group is to receive by mouth a liquid formulation of isoxazoline. The dosage of 0.75 mg/kg is to be administered to the dogs on each of days 0-29.
Dogs in the control group are not to receive isoxazoline or any other tick control treatment. Each dog in the treatment group is to be offered its daily ration (dry food) and the individual doses of liquid formulation are to be administered after the individual dog has eaten at least 25% of its total daily ration. After receiving the dose of isoxazoline, the dogs are to be allowed to continue eating. This mimics incorporating the isoxazoline in feed. Each dog in the treatment group and the control group is to be experimentally infested with 50 adult ticks on test days 5, 12, 19, 28 and 35. Comb counts for live and moribund attached ticks are to be conducted on days 7, 14, 21, 30 and 37.

Q: Which “Mivorilaner Concentration” value ([1]; Group 2 (0.125 mg/kg/day) oral fed, 72 hours after initial dose) does the source give for `O=C(CNC(=O)c1sc(C2=NO[C@@](c3cc(Cl)c(F)c(Cl)c3)(C(F)(F)F)C2)c2c1CCC2)NCC(F)F` [Mivorilaner, 3-[(5S)-5-(3,5-dichloro-4-fluorophenyl)-5-(trifluoromethyl)-4,5-dihydroisoxazol-3-yl]-N-[2-[(2,2-difluoroethyl)amino]-2-oxoethyl]-5,6-dihydro-4H-cyclopenta[c]thiophene-1-carboxamide] here?
A: Its value is 135.83 ng/mL.

Q: And the “Mivorilaner Concentration” value ([1]; Group 2 (0.125 mg/kg/day) oral fed, 120 hours after initial dose)?
A: The value was 212.63 ng/mL.

Q: What about the “Mivorilaner Concentration” value ([1]; Group 2 (0.125 mg/kg/day) oral fed, 168 hours after initial dose) of the same molecule?
A: Its value is 243.63 ng/mL.

Q: And the “Mivorilaner Concentration” value ([1]; Group 2 (0.125 mg/kg/day) oral fed, 336 hours after initial dose)?
A: The value was 383.75 ng/mL.

Q: What about the “Mivorilaner Concentration” value ([1]; Group 2 (0.125 mg/kg/day) oral fed, 504 hours after initial dose) of the same molecule?
A: The value was 404.13 ng/mL.

Q: What about the “Mivorilaner Concentration” value ([1]; Group 2 (0.125 mg/kg/day) oral fed, 720 hours after initial dose) of the same molecule?
A: Its value is 419.50 ng/mL.

Q: And the “Mivorilaner Concentration” value ([1]; Group 2 (0.125 mg/kg/day) oral fed, 888 hours after initial dose)?
A: Its value is 447.50 ng/mL.

Q: And the “Mivorilaner Concentration” value ([1]; Group 2 (0.125 mg/kg/day) oral fed, 1056 hours after initial dose)?
A: The value was 428.38 ng/mL.

Q: What about the “Mivorilaner Concentration” value ([1]; Group 2 (0.125 mg/kg/day) oral fed, 1224 hours after initial dose) of the same molecule?
A: The value was 485.50 ng/mL.

Q: What about the “Mivorilaner Concentration” value ([1]; Group 2 (0.125 mg/kg/day) oral fed, 1440 hours after initial dose) of the same molecule?
A: Its value is 897.50 ng/mL.

Q: And the “Mivorilaner Concentration” value ([1]; Group 3 (0.25 mg/kg/day) oral fed, 72 hours after initial dose)?
A: The value was 283.13 ng/mL.

Q: And the “Mivorilaner Concentration” value ([1]; Group 3 (0.25 mg/kg/day) oral fed, 120 hours after initial dose)?
A: Its value is 450.00 ng/mL.

Q: What about the “Mivorilaner Concentration” value ([1]; Group 3 (0.25 mg/kg/day) oral fed, 168 hours after initial dose) of the same molecule?
A: The value was 579.13 ng/mL.

Q: What about the “Mivorilaner Concentration” value ([1]; Group 3 (0.25 mg/kg/day) oral fed, 336 hours after initial dose) of the same molecule?
A: Its value is 883.38 ng/mL.

Q: What about the “Mivorilaner Concentration” value ([1]; Group 3 (0.25 mg/kg/day) oral fed, 504 hours after initial dose) of the same molecule?
A: The value was 877.75 ng/mL.

Q: And the “Mivorilaner Concentration” value ([1]; Group 3 (0.25 mg/kg/day) oral fed, 720 hours after initial dose)?
A: The value was 1015.63 ng/mL.

Q: What about the “Mivorilaner Concentration” value ([1]; Group 3 (0.25 mg/kg/day) oral fed, 888 hours after initial dose) of the same molecule?
A: Its value is 1003.88 ng/mL.

Q: What about the “Mivorilaner Concentration” value ([1]; Group 3 (0.25 mg/kg/day) oral fed, 1056 hours after initial dose) of the same molecule?
A: The value was 945.13 ng/mL.

Q: And the “Mivorilaner Concentration” value ([1]; Group 3 (0.25 mg/kg/day) oral fed, 1224 hours after initial dose)?
A: Its value is 1040.88 ng/mL.

Q: What about the “Mivorilaner Concentration” value ([1]; Group 3 (0.25 mg/kg/day) oral fed, 1440 hours after initial dose) of the same molecule?
A: Its value is 999.13 ng/mL.

Q: What about the “Mivorilaner Concentration” value ([1]; Group 4 (0.5 mg/kg/day) oral fed, 72 hours after initial dose) of the same molecule?
A: Its value is 474.25 ng/mL.

Q: And the “Mivorilaner Concentration” value ([1]; Group 4 (0.5 mg/kg/day) oral fed, 120 hours after initial dose)?
A: Its value is 763.13 ng/mL.

Q: And the “Mivorilaner Concentration” value ([1]; Group 4 (0.5 mg/kg/day) oral fed, 168 hours after initial dose)?
A: The value was 888.00 ng/mL.

Q: And the “Mivorilaner Concentration” value ([1]; Group 4 (0.5 mg/kg/day) oral fed, 336 hours after initial dose)?
A: The value was 1457.88 ng/mL.

Q: And the “Mivorilaner Concentration” value ([1]; Group 4 (0.5 mg/kg/day) oral fed, 504 hours after initial dose)?
A: The value was 1633.25 ng/mL.

Q: And the “Mivorilaner Concentration” value ([1]; Group 4 (0.5 mg/kg/day) oral fed, 720 hours after initial dose)?
A: Its value is 1873.75 ng/mL.

Q: And the “Mivorilaner Concentration” value ([1]; Group 4 (0.5 mg/kg/day) oral fed, 888 hours after initial dose)?
A: The value was 1986.25 ng/mL.

Q: And the “Mivorilaner Concentration” value ([1]; Group 4 (0.5 mg/kg/day) oral fed, 1056 hours after initial dose)?
A: Its value is 2012.50 ng/mL.

Q: And the “Mivorilaner Concentration” value ([1]; Group 4 (0.5 mg/kg/day) oral fed, 1224 hours after initial dose)?
A: Its value is 2318.75 ng/mL.

Q: What about the “Mivorilaner Concentration” value ([1]; Group 4 (0.5 mg/kg/day) oral fed, 1440 hours after initial dose) of the same molecule?
A: The value was 2298.75 ng/mL.

Q: What about the “Mivorilaner Concentration” value ([1]; Group 5 (1.0 mg/kg/day) oral fed, 72 hours after initial dose) of the same molecule?
A: The value was 951.25 ng/mL.

Q: What about the “Mivorilaner Concentration” value ([1]; Group 5 (1.0 mg/kg/day) oral fed, 120 hours after initial dose) of the same molecule?
A: The value was 1510.00 ng/mL.

Q: And the “Mivorilaner Concentration” value ([1]; Group 5 (1.0 mg/kg/day) oral fed, 168 hours after initial dose)?
A: The value was 1793.75 ng/mL.

Q: And the “Mivorilaner Concentration” value ([1]; Group 5 (1.0 mg/kg/day) oral fed, 336 hours after initial dose)?
A: Its value is 2691.25 ng/mL.

Q: And the “Mivorilaner Concentration” value ([1]; Group 5 (1.0 mg/kg/day) oral fed, 504 hours after initial dose)?
A: Its value is 3016.25 ng/mL.

Q: And the “Mivorilaner Concentration” value ([1]; Group 5 (1.0 mg/kg/day) oral fed, 720 hours after initial dose)?
A: Its value is 3756.25 ng/mL.

Q: And the “Mivorilaner Concentration” value ([1]; Group 5 (1.0 mg/kg/day) oral fed, 888 hours after initial dose)?
A: Its value is 3861.25 ng/mL.

Q: And the “Mivorilaner Concentration” value ([1]; Group 5 (1.0 mg/kg/day) oral fed, 1056 hours after initial dose)?
A: Its value is 4263.75 ng/mL.

Q: And the “Mivorilaner Concentration” value ([1]; Group 5 (1.0 mg/kg/day) oral fed, 1224 hours after initial dose)?
A: Its value is 4838.75 ng/mL.

Q: What about the “Mivorilaner Concentration” value ([1]; Group 5 (1.0 mg/kg/day) oral fed, 1440 hours after initial dose) of the same molecule?
A: The value was 4142.50 ng/mL.

Q: What about the “Mivorilaner Concentration, Average” value [2] of the same molecule?
A: The value was 674 ng/mL.
